Series [1] can be described thus: Solubility determination in oil (cottonseed oil, sesame oil). The conditions noted are these: heating temp. 60 °C, obs. temp. 40 °C. As to the method: A known amount of test substance (˜40 mg) was weighed into the vial, 100 μL of oil was added and heated to 60° C. and then system was slurried to reach equilibrium. […] Extra oil was added into the vial once compound precipitated out and then the system was re-equilibrated at 1000 rpm at room temperature (25° C.). Final concentration was determined by HPLC method as described below in Table 6a and 6b.

Series [2] in a line: Physical characterization of solid state drug substance (PLM, XRPD, DSC, TGA). The series is classed as physicochemical. The conditions noted are these: at 120° C., heated from room temperature at 10° C./minute. Here is the method:
The analysis of the physical characteristics of drug substances that were in a solid state was conducted using polarized light microscopy (PLM), X-ray powder diffractometer (XRPD) assessment, Differential Scanning calorimetry (DSC) and Thermal Gravimetric Analysis (TGA). For PLM, samples were dispersed in immersion oil and were observed using an ocular lens (10×) and objective lens (20×) under crossed polarizers. For XRPD, samples were run on a diffractometer using the following method: Tube—Cu: K-alpha (λ=1.54179 Å); Generator—Voltage 40 kV, Current 40 mA; Scan scope—3 to 40°; sample rotation speed—15 rpm; scanning rate—10 deg/min. For DSC, ˜1 mg of sample was tested using a crimped aluminum pan and covered by a lid with a hole, heated from room temperature to 300° C. at a speed of 10° C./minute. For TGA, 2-5 mg of sample was placed in an open platinum pan and heated from room temperature to 300° C. at a rate of 10° C./minute.

Series [3] in a line: Polymorph screening of solid state drug substances. The settings on record: for XRPD results (Dried): stirred 50 °C 72 hours, solids dried; for Visual observation 50° C. / Visual observation RT: target conc. 100 mg/ml.
The nature of series [4]: Plasma stability assay, rat plasma. In kind it is in vitro ADME. The conditions noted are these: 37° C., 10 μM.

With `CCCCCCCCCCCCCCCC(=O)Oc1ccc2c3c1O[C@H]1C(=O)CC[C@@]4(O)C(C2)N(CC2CC2)CC[C@]314` [Compound 55, (4aS,7aR,12bS)-3-(cyclopropylmethyl)-4a-hydroxy-7-oxo-2,3,4,4a,5,6,7,7a-octahydro-1H-4,12-methanobenzofuro[3,2-e]isoquinolin-9-yl palmitate], the “Approximate Solubility (mg/mL) in Excipient: Ethanol” value in series [1] (Ethanol) is given as >401.1 mg/mL. In series [1] (Sesame oil), the “Approximate Solubility (mg/mL) in Excipient: Sesame oil” value is on record as >394.8 mg/mL. For the same compound, in series [2], the “Thermal Gravimetric Analysis, weight loss” value is on record as “Weight loss of 0.2597%”. In addition, the “XRPD results (Dried)” value in series [3] (Acetone), in series [3] (EtOAc), in series [3] (Heptane), in series [3] (Isopropanol) and in series [3] (MTBE) was “Pattern B” in each case. In addition, the “Visual observation 50° C.” value in series [3] (Acetone), in series [3] (EtOAc), in series [3] (Heptane), in series [3] (Isopropanol) and in series [3] (MTBE) was “Clear” each time. Also, the “Visual observation RT” value in series [3] (Acetone) is recorded as “Slurry”; in series [3] (EtOAc) it was “Slurry”; in series [3] (Heptane), “Slurry”; in series [3] (Isopropanol) it was “Slurry”; in series [3] (MTBE), “Clear”. In addition, the “Comment: stability of initial crystal form (pattern A)” value in series [3] (polymorph screen over Heptane, MTBE, Isopropanol, EtOAc, Acetone) is recorded as “Cannot determine which crystal form”. The “% remaining at time point in minutes, 0 min” value in series [4] (0 min) is given as 100%. The “% remaining at time point in minutes, 15 min” value in series [4] (15 min) was found to be 77.3%. Further, the “% remaining at time point in minutes, 120 min” value in series [4] (120 min) was determined as 47.2%. For the same compound, in series [4] (480 min), the “% remaining at time point in minutes, 480 min” value worked out at 27.1%. The “% remaining at time point in minutes, 1440 min” value in series [4] (1440 min) amounted to 15.6%.

For the origin of these results see patent publication US10525055B2, “Opioid receptor antagonist prodrugs” (Nirsum Laboratories, Inc., priority 2017, dated 2020).
